PubChem BioAssay (NCI)
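Exposure lasted 48 hours, with cells grown in 96-well plates and compounds tested at five concentrations. GI50: concentration for 50% inhibition of growth. TGI marks complete inhibition of growth.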

How the values were obtained:
Assay in all cases: NCI-60 cell line screen, 48 h
HCT-15 colon = tested on: HCT-15 colon
MCF7 breast = tested on: MCF7 breast
RPMI-8226 leukemia = tested on: RPMI-8226 leukemia
SF-268 CNS = tested on: SF-268 CNS
SNB-19 CNS = tested on: SNB-19 CNS
T-47D breast = tested on: T-47D breast
HT29 colon = tested on: HT29 colon
TK-10 renal = tested on: TK-10 renal

| Compound | GI50 (HCT-15 colon) [µM] | TGI (HCT-15 colon) [µM] | GI50 (MCF7 breast) [µM] | TGI (MCF7 breast) [µM] | GI50 (RPMI-8226 leukemia) [µM] | TGI (RPMI-8226 leukemia) [µM] | GI50 (SF-268 CNS) [µM] | TGI (SF-268 CNS) [µM] | GI50 (SNB-19 CNS) [µM] | TGI (SNB-19 CNS) [µM] | GI50 (T-47D breast) [µM] | TGI (T-47D breast) [µM] | GI50 (HT29 colon) [µM] | TGI (HT29 colon) [µM] | GI50 (TK-10 renal) [µM] | TGI (TK-10 renal) [µM] |
| --- | --- | --- | --- | --- | --- | --- | --- | --- | --- | --- | --- | --- | --- | --- | --- | --- |
| Nc1nc(N)c2nc3c(nc2n1)CCCCCCCCCC3 | 0.891 | > 100 | 2.96 | > 100 | > 100 | > 100 | 2.1 | > 100 | 6.43 | > 100 | > 100 | > 100 |  |  |  |  |
| CCCCOC1OC(COC(=O)C(C)C)C(OC(=O)C(C)C)C(O)C1OC1OC(C)C(OC(=O)CCC)C(OC(=O)C(C)C)C1O (configuration not stated) | 14.2 | 27.3 | 8.4 | 61.6 | 2.27 | 8.95 | 12.2 | 29 | 16.5 | 31.3 | 15 | 35.3 | 9.33 | 22.5 | 13.2 | 25.9 |
| Cc1cc(O)c(C2=NN(c3ccc(S(N)(=O)=O)cc3)C(/C=C/c3ccccc3)C2)cc1Cl (configuration not stated) | 18.9 | > 100 | 3.93 | 16.1 | 4.95 | 20.6 | 5.63 | 19.5 | 7.84 | 19.9 | 3.38 | 14.7 | 3.73 | 14.7 | 14.8 | 29.9 |
| O=C(O)c1c(Br)c(Br)c(Br)c(Br)c1C1c2ccc(O)cc2Oc2cc(O)ccc21 |  | > 100 |  | > 100 |  | > 100 |  | > 100 |  | > 100 |  | > 100 |  | > 100 |  | > 100 |
| C[C@@H](CO)NC(=O)c1cc(-c2ccc(Cl)cc2)nn(-c2cnn(C)c2)c1=O | 17.2 | > 100 | 25.7 | > 100 | 20.5 | > 100 | 25.6 | > 100 | 26.4 | > 100 | 25.9 | > 100 | 19.4 | 76.7 | 3.12 | 47 |
| COc1ccc(C(=O)c2sc3nc(-c4cccs4)ccc3c2N)cc1OC | 2.81 | > 100 | 2.79 | > 100 | 5.45 | > 100 | 8.33 | > 100 | > 100 | > 100 |  |  | 3.65 | 17.4 |  |  |
| COc1c(N2CCN(CN3C(=O)C(=O)c4cc(Cl)ccc43)C(C)C2)c(F)cc2c(=O)c(C(=O)O)cn(C3CC3)c12 (configuration not stated) | 31.7 | > 100 | 26.6 | > 100 | 9.07 | 25.7 | 26.8 | > 100 | 92.2 | > 100 |  |  | 30.9 | > 100 | 27.1 | > 100 |
| COc1cc(C)c2sc3ccccc3c(=O)c2c1NCCN(C)C | 3.13 | 11.2 | 2.4 | 10.2 | 2.85 | 8.87 | 8.57 | 22.3 | 12.9 | 27.2 | 2.58 | 9.4 | 2.62 | 9.15 | 8.83 | 21.2 |
| O=C1CC/C(=C/COc2cc(=O)oc3ccccc23)O1 | 5.28 | 18.4 | 3.74 | 20.2 | 2.02 | 8.07 | 16.2 | 51.7 | 10.9 | 26.7 | 2.27 | 19.8 | 4.38 | 19.6 | 2.73 | 10.5 |
| O=C(CC1C=Cc2ccccc2N1C(=O)c1ccccc1)c1ccccc1 (configuration not stated) |  | > 100 |  | > 100 |  | 39.9 |  | > 100 |  | > 100 |  | > 100 |  | 40.2 |  | > 100 |
| CCOc1ccc2c(c1)c(CC(=O)O)cn2C |  | > 100 |  | > 100 |  | > 100 |  | > 100 |  | > 100 |  | > 100 |  | > 100 |  | > 100 |
| CN(CCCCCl)P(=O)(OCc1ccc([N+](=O)[O-])o1)OCC1OC(n2cnc([N+](=O)[O-])c2N)C(O)C1O (configuration not stated) | > 100 | > 100 | 54.8 | > 100 | > 100 | > 100 | > 100 | > 100 | > 100 | > 100 |  |  | > 100 | > 100 | > 100 | > 100 |
| CC(=O)Nc1n[n+]([O-])c2cc(C)ccc2[n+]1[O-] |  | 14.9 |  | 3.66 |  | > 100 |  | 19.7 |  | 23.3 |  | 11.4 |  | 13.4 |  | 58.1 |
| Cc1ccc(-n2nnnc2-c2cnc(N3CCOCC3)nc2-c2cccc(C(F)(F)F)c2)cc1 | 3 | 8.57 | 1.32 | > 32.8 | 1.28 | 3.77 | 3 | 29.4 | 2.21 | > 32.8 | 2.31 | > 15.6 | 1.53 | > 18.4 | 1.54 | 4.56 |
| N#CC(C#N)=C/C=C(\Sc1ccc(F)cc1Cl)c1ccc(Cl)cc1 | 0.425 | 1.58 | 0.417 | 2.55 | 0.0963 | 0.515 | 0.457 | 1.9 | 4.54 | 23.6 | 0.659 | 5.19 |  |  | 0.5 | 2.08 |
| CC(=O)O[C@H]1CC[C@@]2(C)C(=C/C(=N/OCCN3CCCC3)[C@H]3[C@@H]4CC[C@H](OC(C)=O)[C@@]4(C)CC[C@@H]32)C1 | 20.1 | 45 | 53.4 | > 100 | 22 | 53.3 | > 100 | > 100 | 69.1 | > 100 | 52.1 | > 100 | 12.5 | > 100 | 90.4 | > 100 |
| Cn1cc(C2=C(Nc3ccccc3)C(=O)NC2=O)c2ccccc21 | 24.8 | > 25 | > 25 | > 25 | > 25 | > 25 | > 25 | > 25 | > 25 | > 25 | 16.2 | > 25 | 14.7 | > 25 | > 25 | > 25 |

| Compound | GI50 (HCT-15 colon) [µM] | TGI (HCT-15 colon) [µM] | GI50 (MCF7 breast) [µM] | TGI (MCF7 breast) [µM] | GI50 (RPMI-8226 leukemia) [µM] | TGI (RPMI-8226 leukemia) [µM] | GI50 (SF-268 CNS) [µM] | TGI (SF-268 CNS) [µM] | GI50 (SNB-19 CNS) [µM] | TGI (SNB-19 CNS) [µM] | GI50 (T-47D breast) [µM] | TGI (T-47D breast) [µM] | GI50 (HT29 colon) [µM] | TGI (HT29 colon) [µM] | GI50 (TK-10 renal) [µM] | TGI (TK-10 renal) [µM] |
| --- | --- | --- | --- | --- | --- | --- | --- | --- | --- | --- | --- | --- | --- | --- | --- | --- |
| CN(C)c1ccc(/C=N/S(=O)(=O)c2ccc(-n3c(-c4ccccc4)nc4c(Br)cc(Br)cc4c3=O)cc2)cc1 | 51.1 | > 100 | 28.8 | > 78 | 4.27 | > 96.4 | 48.5 | > 100 | 51.2 | > 100 | 24.5 | 88 | 42.5 | > 100 | 45.8 | > 100 |
| COc1cc2c(c(OC)c1OC)-c1ccc(N=NC(N)=S)c(=O)cc1[C@@H](NC(C)=O)CC2 | 6 | > 100 | 0.364 | > 100 | 0.708 | > 100 | 0.716 | > 100 | 0.578 | > 100 | 0.361 | > 100 | 0.388 | > 100 | 9.01 | > 100 |
| Cc1cc(Cl)ccc1C(=O)c1ccc2ccccc2c1C(=O)O |  | > 100 |  | > 100 |  | > 100 |  | > 100 |  | > 100 |  | > 100 |  | > 100 |  | > 100 |
| Cc1[nH]c2cc(F)ccc2c1-c1nc2c3cccnc3c3ncccc3c2[nH]1 | 0.359 | 18.8 | 0.319 | 1.65 | 0.771 | 2.91 | 0.21 | 2.2 | 0.257 | 3.87 | 0.341 | 1.28 | 0.436 | 1.66 | 0.396 | 2.34 |
| CCCCNc1ccc(Nc2ccccc2)cc1 | 21.3 | > 100 | 3.74 | 28 | 1.72 | 4.86 | 13.3 | > 100 | 5.19 | > 100 | 1.65 | 47 | 4.37 | 25.1 | 4.27 | 56.3 |
| CC1(C)Cc2c(Br)c(Br)c(Br)c(OCC(O)CN3CCN(c4ccccn4)CC3)c2O1 (configuration not stated) | 10.9 | 26.5 | 10.3 | 22.4 |  |  | 12.9 | 39.6 | 20.8 | 49.6 | 18.3 | > 100 | 5.5 | 18 | 14.3 | 30.8 |
| COc1cnc2c(c1)C(=O)c1c-2n(CCCN2CCC(O)CC2)c(=O)c2cc(Cl)ccc12 | 1.17 | 2.55 | 0.0422 | 1.54 | 0.947 | 5.19 | 0.211 | 2.34 | 0.243 | 3.46 | 0.656 | 4.69 | 0.59 | 2.43 | 13 | 28.7 |
| COc1cc2oc3c(c(=O)c2c(O)c1/C=C/C(C)C)C(C=C(C)C)Oc1cc(O)ccc1-3 (configuration not stated) |  | 31.7 |  | 28.6 |  | 33.9 |  | 36.8 |  | 30.6 |  | 31 |  | 28.8 |  | 31.5 |
| O=[N+]([O-])c1cc2no[n+]([O-])c2cc1N1CCCCC1 |  | 11.9 |  |  |  | 6.64 |  | 41.2 |  | 35.5 |  | 5.53 |  | 3.86 |  | 9.08 |
| Cc1cccc2c3c(sc12)C(c1ccc(F)cc1)C(C#N)=C(N)O3 (configuration not stated) | 0.0447 | 10.7 | 0.0332 | 11.1 | 0.048 | 8.31 | 0.35 | 17.5 | 0.081 | 12.2 |  |  | 0.313 | 8.4 | 5.51 | 23 |
| COc1cc(Cl)cc(-c2nn(-c3cccc(NC(=O)Nc4ccc(Cl)c(Cl)c4)c3)cc2-c2ccncc2)c1 | 2.51 | 31.5 | 2.56 | 13.2 | 0.652 | 3.37 | 3.27 | > 100 | 3.51 | > 100 | 2.78 | 18.9 | 2.38 | 9.07 |  |  |
| COc1ccc(-c2csc(NC(=O)CN3CCN(c4cc5c(cc4F)c(=O)c(C(=O)O)cn5C4CC4)CC3)n2)cc1 | 3.23 | > 100 | 2.84 | > 100 | 2.69 | > 100 | 4.28 | > 100 | 4.1 | > 100 |  |  | 3.49 | > 100 | 4.62 | 22.9 |
| Cl.Fc1c[c-]c(-c2ccccn2)c(F)c1.[Pt].c1ccc([PH+](C[PH+](c2ccccc2)c2ccccc2)c2ccccc2)cc1 |  |  | 0.198 | 1.12 | 0.161 | 0.544 |  |  | 0.343 | 1.32 | 0.135 | 1.02 |  |  | 0.274 | 1.43 |
| Cc1nc2cc(Nc3nc(Nc4ccc(F)cc4)nc(N4CCOCC4)n3)ccc2n1Cc1ccccc1 | 2.19 | 5.18 | 3.23 | 13.8 | 2.19 | 5.86 | 5.41 | 49.2 | 5.72 | > 100 | 3.88 | > 100 | 1.93 | 4.07 |  |  |
| CCN1C(=NCCO)NS(=O)(=O)c2ccccc21 |  | > 100 |  | > 100 |  |  |  | > 100 |  | > 100 |  | > 100 |  | > 100 |  | > 100 |
| COC(=O)C(C(=O)OC)C(Br)C(Br)C(Br)c1ccccc1 (configuration not stated) | 2.83 | 11 | 2.43 | 9.68 | 2.68 | 7.8 | 14.6 | 29.6 |  |  | 2.03 | 4.92 | 5.68 | 21.8 |  |  |
| O=Cc1ccc(-c2ccc(-c3nc4ccccc4s3)cc2)s1 | 39.8 | > 100 | 48.1 | > 100 |  |  | 71.7 | > 100 | > 100 | > 100 | > 100 | > 100 | 77.3 | > 100 | 70.2 | > 100 |
